Key:
[1] = test system: cerebral ischemia induced in rats (MCAO); test: Animal cerebral infarct assay (Middle Cerebral Artery Occlusion, MCAO); format: in vivo, rat; details: for reduce infarct size: rat; for total infarct volume relative to control animals / total ischemic damage relative to control animals: administered I.V. at the time of MCAO; for cerebral edema relative to control animals: administered at the time of MCAO; for cerebral edema relative to controls / total infarct volume relative to controls / total ischemic damage relative to controls: administered at the time of reperfusion
Excerpt: This assay is used to assess the efficacy of the test agents in protecting the brain against necrosis following cerebral ischemia induced in rats. Middle Cerebral Artery Occlusion (MCAO) is a widely used technique to induce transient focal cerebral ischemia in animal models. […] Furthermore, this model accurately represents the involvement of middle cerebral artery (MCA), the most affected vessel in human stroke, and also allows reperfusion as it happens in humans. MCAO by a two-hour occlusion is used to produce the maximum size of cortical infarction without increased mortality at twenty-four hours.
Male Wistar rats (Hadan, Ind.) weighing 300-350 g were allowed free access to water and commercial rodent diet under standard laboratory conditions. The room temperature was maintained at 20-23° C. and room illumination was on a 12/12-hour light/dark cycle. The rats were acclimatized to the laboratory environment 5 to 7 days prior to the study.
Before surgery, the animals were fasted overnight, but had free access to water. The-rats were anesthetized with 3.0% isoflurane (Aerrane, Front Dodge, Iowa) in […] and the animal's neck was shaved and sterilized before the operation. The animals were subjected to two hours MCAO using a modified intraluminal filament technique. A midline incision on the ventral part of the neck was made to expose external and internal carotid arteries. The right external and common carotid arteries were ligated by a suture (silk 5/0, Carlisle Laboratories, Farmers Branch, Tex.) and the right internal artery was temporarily ligated by a microvascular clip (Fine Science Tool Inc., Foster City, Calif.). A small incision was made in the common carotid artery and a nylon filament, its tip rounded by heating, prepared from a fishing line (Stren Fishing Lines, Wilmington, Del.) was inserted from the right common carotid artery. The filament was advanced into the internal carotid artery 18-20 mm from the point of bifurcation of internal and external arteries and a suture was tightly ligated around the filament. Two hours post occlusion, the animals were re-anesthetized to allow reperfusion for the remaining of the experiment by removal of the filament.
Anesthesia was maintained by inhalation of 3.0% isoflurane in […] throughout the entire procedure. The exterior site of the right femoral vein was shaved and sterilized prior to surgery. A 3 cm incision was made in the right groin region and the femoral vein was isolated. A small incision was made on the femoral vein temporarily ligated with a microvascular clip to introduce and advance a polyethylene (PE-50) catheter (Becton. Dickinson and Co., Sparks, Md.). The catheter was secured in place with suture (silk 5/0, Cailisle Laboratories, Farmers Branch, Tex.). The other end of the catheter was attached to a syringe filled with the heparinized saline for the bolus injection. Using a hemostat a pocket was made subcutaneously on the back of the animal so the PE catheter can be brought up to the exteriorization point at the nape of the neck for either a bolus injection or a continuous injection by an osmotic pump.
A standard rat gavage tube (Popper & Sons Inc, NY) was attached to a 3-cc hypodermic syringe. The animal was held by the shoulder in a vertical position. The feeding tube was placed into the mouth then advanced until it reached the stomach (the approximate insertion length of the tube was measured prior to the feeding). The content of the syringe was slowly delivered, and then the tube is withdrawn.
The animals are sacrificed by CO2 asphyxiation (dry ice) 24 hours post-MCAO. The skull is removed to expose the brain using a small bone cutter and starting from the base of the skull. The brain is removed quickly, rinsed in a chilled saline and placed on a rat brain tissue slicer (ASI instrument, Mich.). Seven 2-mm thick coronal slices are cut from each brain using razor blades. […]

[2] = Evans resorption sterility test for vitamin E; cited from earlier work
[3] = 6 mg/kg, administered IV at MCAO
[4] = 0.60 mg/kg, administered IV at MCAO
[5] = administered at reperfusion (FIG. 2)
[6] = administered at the time of MCAO (FIG. 1)
[7] = at the same concentration, MCAO assay

Row | SMILES | reduce infarct size [1, 3] [%] | reduce infarct size [1, 4] [%] | reduction of total infarct volume compared with alpha-tocopherol ([1]; MCAO assay) | activity relative to natural alpha-tocopherol [2] | total infarct volume relative to control animals [1] | total ischemic damage relative to control animals [1] | total infarct size [1, 5] | cerebral edema relative to control animals [1] | total infarct size [1, 6] | cerebral edema relative to controls [1] | total infarct volume relative to controls [1] | total ischemic damage relative to controls [1] | decreased neuronal damage ([1]; drug ranges 0.1-5 mg/kg, IV at MCAO) | reduce infarct size ([1]; 10.00 mg/kg by gavage, 3 hours pre-MCAO) [%] | reduction of tissue edema compared with alpha- or delta-tocopherol [1, 7] | reduction of total infarct volume compared with alpha- or delta-tocopherol [1, 7]
1 | Cc1c(C)c2c(c(C)c1O)CC[C@@](C)(CCC[C@H](C)CCC[C@H](C)CCCC(C)C)O2 (relative stereo) [alpha-tocopherol, [2R-2R*(4R*,8R*)]-3,4-dihydro-2,5,7,8-tetramethyl-2-(4,8,12-trimethyltridecyl)-2H-1-benzopyran-6-ol, reference compound] | 42 |  |  |  |  |  |  |  |  |  |  |  |  |  |  | 
2 | Cc1cc(O)cc2c1O[C@](C)(CCC[C@H](C)CCC[C@H](C)CCCC(C)C)CC2 (relative stereo) [delta-tocopherol, [2R-[2R*(4R*,8R*)]]-3,4-dihydro-2,8-dimethyl-2-(4,8,12-trimethyltridecyl)-2H-1-benzo-pyran-6-ol] |  | 52 | more effective | one hundredth |  |  |  |  |  |  |  |  |  |  |  | 
3 | Cc1c(O)cc2c(c1C)OC(C)(CCC(=O)O)CC2 (stereo not drawn) [gamma-CEHC, 2,7,8-trimethyl-2-(β-carboxy-ethyl)-6-hydroxy chroman] |  |  |  |  | significantly reduced | significantly reduced | able to reduce total infarct size | reduced | able to reduce total infarct size | reduction | reduction | reduction | 50-65% |  |  | 
4 | Cc1c(O)cc2c(c1C)OC(C)(CCCC(C)CCCC(C)CCCC(C)C)CC2 (centres unmarked) [gamma-tocopherol, 3,4-dihydro-2,7,8-trimethyl-2-(4,8,12-trimethyltridecyl)-2H-1-benzyopyran-6-ol] | 82 | 81 |  |  | significantly reduced | significantly reduced | able to reduce total infarct size | significantly reduced | able to reduce total infarct size | reduction | reduction | reduction |  | 77 | more effective | more effective
